Results reported in patent US20240124422A1, “MUTANT PI3K-ALPHA INHIBITORS AND THEIR USE AS PHARMACEUTICALS” (Prelude Therapeutics Incorporated, priority 2022, published 2024).

Columns and labels:
[1] = system: phosphorylation of AKT on Ser473 as a readout of the PI3K pathway in SKBR3 (PIK3CA WT) cells; assay: PI3K pathway activation assay, pAKT Ser473 HTRF, SKBR3 cells; assay type: cell-based; details: Homo sapiens, SK-BR-3, 2 h, two hours of treatment
Procedure: The inhibitory activity of compounds was evaluated by measuring phosphorylation of AKT on Ser473 as a readout of the PI3K pathway using HTRF (CisBio catalog number: 64AKSPE). These studies were conducted in the T-47D (heterozygous PIK3CA H1047R) and SKBR3 (PIK3CA WT) cell lines. Cells were maintained in a 37° C. incubator at 5% CO2 in the following media: T-47D: RPMI 1640, ATCC© Modification (Gibco, A10491-01) supplemented with 10% v/v FBS (Gibco, 26140-079), 1% penicillin streptomycin (Gibco, 15140-122), and 7.4 ug/mL insulin (MilliporeSigma, I9278); SKBR3: McCoy's 5a (Modified) Medium (Gibco, 16600-082) supplemented with 10% v/v FBS (Gibco, 26140-079). Cells were seeded in 384-well plates at a density of 4,000 cells/well. Compounds dissolved in DMSO were added using a digital dispense (D300E, Tecan) 10-point serial dilution. After two hours of treatment, cells were lysed for thirty minutes and then incubated with detection reagents per HTRF kit material and manufacturer's instructions. Fluorescence signal was measured with a multimode plate reader (Envision 2105, Perkin Elmer). Fluorescent signal was normalized to background and DMSO controls to obtain percent inhibition/activity for each compound.

[2] = system: phosphorylation of AKT on Ser473 as a readout of the PI3K pathway in T-47D (heterozygous PIK3CA H1047R) cells; assay: PI3K pathway activation assay, pAKT Ser473 HTRF, T-47D cells; assay type: cell-based; details: Homo sapiens, T47D, 2 h, two hours of treatment
Method in brief: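 pAKT Ser473 measured by HTRF in SKBR3 (PIK3CA WT) and T-47D (PIK3CA H1047R) cells, 4,000/well. Signal normalised to background and DMSO controls as percent inhibition.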

| Compound | IC50 [1] | IC50 [2] |
| --- | --- | --- |
| Cc1cc(C(C)Nc2ccccc2C(=O)O)c2nc(N3CCCCCC3)n(C)c(=O)c2c1 (stereo not drawn) [Example 55, 2-((1-(2-(azepan-1-yl)-3,6-dimethyl-4-oxo-3,4-dihydroquinazolin-8-yl)ethyl)amino)benzoic acid] | > 10 µM | < 0.5 µM |
| Cc1cc(C(C)Nc2ccccc2C(N)=O)c2nc(N3Cc4ccccc4C3)n(C)c(=O)c2c1 (stereo not drawn) [Example 4, 2-((1-(2-(isoindolin-2-yl)-3,6-dimethyl-4-oxo-3,4-dihydroquinazolin-8-yl)ethyl)amino)benzamide] | > 10 µM | 0.5 to 10 µM |
| Cc1cc(C(C)Nc2cn(C)nc2C(=O)O)c2nc(N3Cc4ccccc4C3)n(C)c(=O)c2c1 (stereo not drawn) [Example 34, 4-((1-(2-(isoindolin-2-yl)-3,6-dimethyl-4-oxo-3,4-dihydroquinazolin-8-yl)ethyl)amino)-1-methyl-1H-pyrazole-3-carboxylic acid] | > 10 µM | 0.5 to 10 µM |
| Cc1cc(C(C)Nc2ccc(F)c(F)c2C(=O)O)c2nc(N3Cc4ccccc4C3)n(C)c(=O)c2c1 (stereo not drawn) [Example 35, 2,3-difluoro-6-((1-(2-(isoindolin-2-yl)-3,6-dimethyl-4-oxo-3,4-dihydroquinazolin-8-yl)ethyl)amino)benzoic acid] | > 10 µM | < 0.5 µM |
| Cc1cc(C(C)Nc2ccccc2S(C)(=O)=O)c2nc(N3Cc4ccccc4C3)n(C)c(=O)c2c1 (stereo not drawn) [Example 8, 2-(isoindolin-2-yl)-3,6-dimethyl-8-(1-((2-(methylsulfonyl)phenyl)amino)ethyl)quinazolin-4(3H)-one] | > 10 µM | 0.5 to 10 µM |
| COC(=O)NC1[C@H]2CN(c3nc4c(C(C)Nc5ccccc5C(=O)O)cc(C)cc4c(=O)n3C)C[C@@H]12 (stereo partly drawn) [Example 58, 2-((1-(2-((1R,5S,6s)-6-((methoxycarbonyl)amino)-3-azabicyclo[3.1.0]hexan-3-yl)-3,6-dimethyl-4-oxo-3,4-dihydroquinazolin-8-yl)ethyl)amino)benzoic acid] | > 10 µM | < 0.5 µM |
| CC(=O)N1CCN(c2nc3c(C(C)Nc4ccccc4C(=O)O)cc(C)cc3c(=O)n2C)CC1 (stereo not drawn) [Example 46, 2-((1-(2-(4-acetylpiperazin-1-yl)-3,6-dimethyl-4-oxo-3,4-dihydroquinazolin-8-yl)ethyl)amino)benzoic acid] | > 10 µM | 0.5 to 10 µM |
| Cc1cc(C(C)Nc2ccccc2C(=O)O)c2nc(N3Cc4ccccc4C3)n(C3CC(CO)(CO)C3)c(=O)c2c1 (stereo not drawn) [Example 98, 2-((1-(3-(3,3-Bis(hydroxymethyl)cyclobutyl)-2-(isoindolin-2-yl)-6-methyl-4-oxo-3,4-dihydroquinazolin-8-yl)ethyl)amino)benzoic acid] | > 10 µM | < 0.5 µM |
| COCCn1c(N2Cc3ccccc3C2)nc2c(C(C)Nc3ccccc3C(=O)O)cc(C)cc2c1=O (stereo not drawn) [Example 19, 2-((1-(2-(isoindolin-2-yl)-3-(2-methoxyethyl)-6-methyl-4-oxo-3,4-dihydroquinazolin-8-yl)ethyl)amino)benzoic acid] | > 10 µM | 0.5 to 10 µM |
